This passage reports Ki results from BindingDB's records for doi:10.1016/j.bmcl.2003.10.074 (University of Kentucky, 2004).

Usually Ki stands for the dissociation constant of the complex between target and ligand, obtained from inhibition or displacement. Read a high Ki as weaker binding.

The assay is described as follows: Binding affinity towards blood brain barrier choline transporter at 10 uM using rat brain.

In turn, `CCCCCCCC[n+]1ccccc1` [1-Octyl-pyridinium; iodide] came in with a Ki of 250 µM.

`CCCC[n+]1ccccc1` [1-Butyl-pyridinium] had a Ki of 250 µM.

In turn, `CCCCCCCC[n+]1cccc([C@@H]2CCCN2C)c1` [(S)-3-(1-methylpyrrolidin-2-yl)-1-octylpyridinium iodide] returned a Ki of 49 µM.

The compound `CCCCCCCC[N+](C)(C)CCO` [(2-Hydroxy-ethyl)-dimethyl-octyl-ammonium] displayed an inhibitory constant (Ki) of 10 µM.

In turn, `CCCCCCCCCC[n+]1cccc([C@@H]2CCCN2C)c1` [1-Decyl-3-((S)-1-methyl-pyrrolidin-2-yl)-pyridinium; iodide] gave an inhibition constant (Ki) of 27 µM.
